Laboratory results reported in patent US10081624B2, “Heterocyclic compound” (Takeda Pharmaceutical Company Limited, priority 2014, dated 2018).

Experiments:
HDAC6 enzyme = molecular target: T1, HDAC6 enzyme (Homo sapiens, UniProt Q9UBN7); assay: HDAC6 enzyme inhibitory assay (HDAC-Glo I/II Assay kit); assay type: biochemical; conditions: 1 μM test compound; read-out: HDAC6 inhibitory rate (%) (1 μM)
T1 construct: prepared by transducing full length HDAC1 and HDAC6 genes into Sf-9 insect cells; GST; purchased SignalChem; host or cells: Sf-9 insect cells
T1 sequence (Q9UBN7 1-1215): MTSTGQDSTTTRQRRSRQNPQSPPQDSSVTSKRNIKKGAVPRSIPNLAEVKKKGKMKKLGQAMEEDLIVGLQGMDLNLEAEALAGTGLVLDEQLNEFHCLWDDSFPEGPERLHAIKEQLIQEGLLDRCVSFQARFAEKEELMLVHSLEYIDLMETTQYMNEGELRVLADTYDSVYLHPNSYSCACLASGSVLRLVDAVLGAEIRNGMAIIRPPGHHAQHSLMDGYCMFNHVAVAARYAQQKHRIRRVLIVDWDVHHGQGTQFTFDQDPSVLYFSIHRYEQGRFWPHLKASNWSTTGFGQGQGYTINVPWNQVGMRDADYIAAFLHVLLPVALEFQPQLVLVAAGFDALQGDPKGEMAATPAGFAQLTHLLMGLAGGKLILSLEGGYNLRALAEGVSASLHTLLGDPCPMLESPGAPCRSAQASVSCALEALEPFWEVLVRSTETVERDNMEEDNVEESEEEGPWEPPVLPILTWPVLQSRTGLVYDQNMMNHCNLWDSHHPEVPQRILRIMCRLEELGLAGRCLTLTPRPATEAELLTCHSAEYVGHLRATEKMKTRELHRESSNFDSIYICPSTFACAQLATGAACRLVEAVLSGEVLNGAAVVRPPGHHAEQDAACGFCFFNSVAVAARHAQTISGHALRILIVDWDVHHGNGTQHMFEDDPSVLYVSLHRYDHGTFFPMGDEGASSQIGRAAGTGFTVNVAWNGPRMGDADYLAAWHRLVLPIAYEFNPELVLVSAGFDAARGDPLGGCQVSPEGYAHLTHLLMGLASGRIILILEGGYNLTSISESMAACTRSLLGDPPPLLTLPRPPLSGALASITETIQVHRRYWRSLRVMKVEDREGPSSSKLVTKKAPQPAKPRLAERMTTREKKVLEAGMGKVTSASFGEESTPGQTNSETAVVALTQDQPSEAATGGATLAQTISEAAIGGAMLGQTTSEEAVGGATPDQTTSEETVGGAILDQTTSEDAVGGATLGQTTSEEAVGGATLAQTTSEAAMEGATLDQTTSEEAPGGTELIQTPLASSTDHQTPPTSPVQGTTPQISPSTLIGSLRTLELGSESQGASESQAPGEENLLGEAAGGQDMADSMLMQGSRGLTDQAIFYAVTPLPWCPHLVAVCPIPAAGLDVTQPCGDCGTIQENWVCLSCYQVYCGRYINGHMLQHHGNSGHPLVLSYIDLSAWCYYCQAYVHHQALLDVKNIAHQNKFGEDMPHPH
How it was run: (§1)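 Relative activity was calculated from luminescence, with wells lacking enzyme defined as 100% inhibition. The enzymes were full-length HDAC1 or HDAC6 from Sf-9 cells, preincubated with test compound for 60 min before a 20-min substrate-developer reaction at room temperature.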

HDAC1 enzyme = molecular target: T2, HDAC1 enzyme (Homo sapiens, UniProt Q13547); assay: HDAC1 enzyme inhibitory assay (HDAC-Glo I/II Assay kit); assay type: biochemical; conditions: 1 μM test compound; read-out: HDAC1 inhibitory rate (%) (1 μM)
T2 construct: prepared by transducing full length HDAC1 and HDAC6 genes into Sf-9 insect cells; GST; purchased SignalChem; host or cells: Sf-9 insect cells
T2 sequence (Q13547 whole entry): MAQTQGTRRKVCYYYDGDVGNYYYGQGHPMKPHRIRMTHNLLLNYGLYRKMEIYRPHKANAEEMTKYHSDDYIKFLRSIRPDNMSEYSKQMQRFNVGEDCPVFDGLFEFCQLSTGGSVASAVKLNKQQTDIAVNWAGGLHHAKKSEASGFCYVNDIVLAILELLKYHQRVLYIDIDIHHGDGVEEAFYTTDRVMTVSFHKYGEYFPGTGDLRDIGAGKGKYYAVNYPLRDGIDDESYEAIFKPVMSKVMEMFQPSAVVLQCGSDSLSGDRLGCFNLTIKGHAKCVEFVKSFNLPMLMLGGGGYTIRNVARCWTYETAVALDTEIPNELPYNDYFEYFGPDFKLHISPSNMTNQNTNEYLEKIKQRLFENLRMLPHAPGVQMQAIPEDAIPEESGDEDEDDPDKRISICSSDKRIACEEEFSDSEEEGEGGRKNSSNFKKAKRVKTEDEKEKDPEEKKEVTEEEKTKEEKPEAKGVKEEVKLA
How it was run: as §1

| Structure (SMILES) | inhibition at 1 µM (HDAC6 enzyme) [%] | inhibition at 1 µM (HDAC1 enzyme) [%] |
| --- | --- | --- |
| O=C(NCC1COCCN1C(=O)c1cc(Cl)cc(Cl)c1)c1ccc(-c2noc(C(F)(F)F)n2)cn1 (stereo not shown) [Example 182, N-((4-(3,5-dichlorobenzoyl)morpholin-3-yl)methyl)-5-(5-(trifluoromethyl)-1,2,4-oxadiazol-3-yl)pyridine-2-carboxamide] | 97 | 42 |
| O=C(NC[C@H]1COCCN1C(=O)c1cc(Cl)cc(Cl)c1)c1ccc(-c2noc(C(F)(F)F)n2)cn1 [Example 183, N-(((3S)-4-(3,5-dichlorobenzoyl)morpholin-3-yl)methyl)-5-(5-(trifluoromethyl)-1,2,4-oxadiazol-3-yl)pyridine-2-carboxamide] | 97 | 57 |
| Cc1oncc1C(=O)N1CCOC[C@@H]1CNC(=O)c1ccc(-c2noc(C(F)(F)F)n2)cn1 [Example 193, N-(((3S)-4-((5-methyl-1,2-oxazol-4-yl)carbonyl)morpholin-3-yl)methyl)-5-(5-(trifluoromethyl)-1,2,4-oxadiazol-3-yl)pyridine-2-carboxamide] | 97 | 33 |
| Cc1nonc1C(=O)N1CCOC[C@@H]1CNC(=O)c1ccc(-c2noc(C(F)(F)F)n2)cn1 [Example 194, N-(((3S)-4-((4-methyl-1,2,5-oxadiazol-3-yl)carbonyl)morpholin-3-yl)methyl)-5-(5-(trifluoromethyl)-1,2,4-oxadiazol-3-yl)pyridine-2-carboxamide] | 97 | 36 |
| Cc1nnsc1C(=O)N1CCOC[C@@H]1CNC(=O)c1ccc(-c2noc(C(F)(F)F)n2)cn1 [Example 195, N-(((3S)-4-((4-methyl-1,2,3-thiadiazol-5-yl)carbonyl)morpholin-3-yl)methyl)-5-(5-(trifluoromethyl)-1,2,4-oxadiazol-3-yl)pyridine-2-carboxamide] | 98 | 40 |
| O=C(NC[C@H]1COCCN1C(=O)C1CCCCC1)c1ccc(-c2noc(C(F)(F)F)n2)cn1 [Example 204, N-(((3S)-4-(cyclohexylcarbonyl)morpholin-3-yl)methyl)-5-(5-(trifluoromethyl)-1,2,4-oxadiazol-3-yl)pyridine-2-carboxamide] | 97 | 22 |
| O=C(NC[C@H]1COCCN1C(=O)C1C2CC3CC(C2)CC1C3)c1ccc(-c2noc(C(F)(F)F)n2)cn1 (stereo partly shown) [Example 205, N-((4-(adamantan-2-ylcarbonyl)morpholin-3-yl)methy)-5-(5-(trifluoromethyl)-1,2,4-oxadiazol-3-yl)pyridine-2-carboxamide] | 99 | 59 |
| O=C(NC[C@@H]1COCCN1C(=O)c1cc(Cl)cc(Cl)c1)c1ccc(-c2noc(C(F)(F)F)n2)cn1 [Example 209, N-(((3R)-4-(3,5-dichlorobenzoyl)morpholin-3-yl)methyl)-5-(5-(trifluoromethyl)-1,2,4-oxadiazol-3-yl)pyridine-2-carboxamide] | 95 | 21 |
| Cc1oncc1C(=O)N1CCOCC1CNC(=O)c1ccc(-c2noc(C(F)(F)F)n2)s1 (stereo not shown) [Example 235, N-((4-((5-methyl-1,2-oxazol-4-yl)carbonyl)morpholin-3-yl)methyl)-5-(5-(trifluoromethyl)-1,2,4-oxadiazol-3-yl)thiophene-2-carboxamide] | 99 | 17 |
| Cc1nonc1C(=O)N1CCOCC1CNC(=O)c1ccc(-c2noc(C(F)(F)F)n2)s1 (stereo not shown) [Example 236, N-((4-((4-methyl-1,2,5-oxadiazol-3-yl)carbonyl)morpholin-3-yl)methyl)-5-(5-(trifluoromethyl)-1,2,4-oxadiazol-3-yl)thiophene-2-carboxamide] | 98 | 43 |

The next lines start with the values.

| inhibition at 1 µM (HDAC6 enzyme) [%] | inhibition at 1 µM (HDAC1 enzyme) [%] | Structure (SMILES) |
| --- | --- | --- |
| 36 | -1 | Cc1cc(C(=O)NCC2COCCN2C(=O)c2ccccc2)ccc1-c1noc(C(F)(F)F)n1 (stereo not shown) [Example 179, N-((4-benzoylmorpholin-3-yl)methyl)-3-methyl-4-(5-(trifluoromethyl)-1,2,4-oxadiazol-3-yl)benzamide] |
| 97 | 29 | O=C(NCC1COCCN1C(=O)c1ccccc1)c1ccc(-c2noc(C(F)(F)F)n2)cn1 (stereo not shown) [Example 181, N-((4-benzoylmorpholin-3-yl)methyl)-5-(5-(trifluoromethyl)-1,2,4-oxadiazol-3-yl)pyridine-2-carboxamide] |
| 99 | 77 | Cn1nc2ccccc2c1C(=O)N1CCOC[C@@H]1CNC(=O)c1ccc(-c2noc(C(F)(F)F)n2)cn1 [Example 184, N-(((3S)-4-((2-methyl-2H-indazol-3-yl)carbonyl)morpholin-3-yl)methyl)-5-(5-(trifluoromethyl)-1,2,4-oxadiazol-3-yl)pyridine-2-carboxamide] |
| 98 | 20 | O=C(NC[C@H]1COCCN1C(=O)C1(c2ccccc2)CC1)c1ccc(-c2noc(C(F)(F)F)n2)cn1 [Example 202, N-(((3S)-4-((1-phenylcyclopropyl)carbonyl)morpholin-3-yl)methyl)-5-(5-(trifluoromethyl)-1,2,4-oxadiazol-3-yl)pyridine-2-carboxamide] |
| 98 | 33 | CC(C)(C(=O)N1CCOC[C@@H]1CNC(=O)c1ccc(-c2noc(C(F)(F)F)n2)cn1)c1ccccc1 [Example 206, N-(((3S)-4-(2-methyl-2-phenylpropanoyl)morpholin-3-yl)methyl)-5-(5-(trifluoromethyl)-1,2,4-oxadiazol-3-yl)pyridine-2-carboxamide] |
| 99 | 41 | O=C(NC[C@H]1COCCN1C(=O)C(F)(F)c1ccccc1)c1ccc(-c2noc(C(F)(F)F)n2)cn1 [Example 207, N-(((3S)-4-(difluoro(phenyl)acetyl)morpholin-3-yl)methyl)-5-(5-(trifluoromethyl)-1,2,4-oxadiazol-3-yl)pyridine-2-carboxamide] |
| 92 | 16 | O=C(NC[C@@H]1COCCN1C(=O)C1(c2ccccc2)CC1)c1ccc(-c2noc(C(F)(F)F)n2)cn1 [Example 208, N-(((3R)-4-((1-phenylcyclopropyl)carbonyl)morpholin-3-yl)methyl)-5-(5-(trifluoromethyl)-1,2,4-oxadiazol-3-yl)pyridine-2-carboxamide] |
| 96 | 23 | O=C(NCC1COCCN1C(=O)c1ccccc1)c1ccc(-c2noc(C(F)(F)F)n2)s1 (stereo not shown) [Example 210, N-((4-benzoylmorpholin-3-yl)methyl)-5-(5-(trifluoromethyl)-1,2,4-oxadiazol-3-yl)thiophene-2-carboxamide] |
| 96 | 15 | O=C(NCC1COCCN1C(=O)c1cc(Cl)cc(Cl)c1)c1ccc(-c2noc(C(F)(F)F)n2)s1 (stereo not shown) [Example 211, N-((4-(3,5-dichlorobenzoyl)morpholin-3-yl)methyl)-5-(5-(trifluoromethyl)-1,2,4-oxadiazol-3-yl)thiophene-2-carboxamide] |
| 89 | 7 | O=C(NCC1COCCN1C(=O)c1cccc(-c2ccccc2)c1)c1ccc(-c2noc(C(F)(F)F)n2)s1 (stereo not shown) [Example 222, N-((4-(biphenyl-3-ylcarbonyl)morpholin-3-yl)methyl)-5-(5-(trifluoromethyl)-1,2,4-oxadiazol-3-yl)thiophene-2-carboxamide] |
